In US20250057793A1, “BENZOIC ACID SALTS FOR TREATMENT OF NERVOUS SYSTEM INJURIES AND DISORDERS” (The United States Government as represented by the …, priority 2021, published 2025):
“Also recorded” adds a separate entry of the source.

Experiments:
CCI-induced TBI mice [1] = assay: Glial activation and iNOS in brain of CCI-induced TBI mice (immunofluorescence, Western blot); conditions: for activation of astrocytes / astroglial inflammation in vivo / microglial activation in vivo / iNOS / iNOS-positive cells / GFAP-positive astrocytes / Iba1-positive microglia: cortex and hippocampus; for activation of astrocytes / astroglial inflammation in vivo / microglial activation in vivo: 7 days of treatment, 50 mg/kg/day oral; for iNOS / iNOS-positive cells / level of iNOS protein / expression of iNOS (Western blot) / protein level of GFAP (Western blot) / protein level of Iba1 (Western blot): day 7, 50 mg/kg/day oral; for GFAP-positive astrocytes / Iba1-positive microglia: day 7 post-injury, 50 mg/kg/day oral from 24 h after CCI; for level of iNOS protein / expression of iNOS (Western blot) / protein level of GFAP (Western blot) / protein level of Iba1 (Western blot): hippocampus
CCI-induced TBI mice [2] = assay: Lesion volume in CCI-induced mice (Cavalieri stereology); type: in vivo, mouse; conditions: for total lesion volume / size of lesion cavity: 21 days post-injury
Procedure: FIG. 5C is a plot showing lesion size in the experimental conditions. Lesion size was quantitatively measured in control mice, untreated CCI injured mice, NaB treated CCI-mice and NaFO-treated CCI-mice at 21 days post-injury. Statistical analyses were performed with Student's t-test in the injured side of the brain [^ap<0.001 (5.623×10^−7) vs control; ^bp<0.001 (=0.001) vs CCI injury].
FIGS. 10A-10C. Decrease in lesion volume in TBI mice by GTB treatment. […] FIG. 10A. […] FIG. 10C. Lesion volume was quantified in all groups of mice. Statistical analyses were performed with two way ANOVA and expressed as mean±SD to compare the lesion volume between unlesioned and lesioned side of the brain.
The estimation of lesion volume was performed based on the Cavalieri method of unbiased stereology using the StereoInvestigator software (MicroBright Biosciences, USA). Both the ipsilateral and contralateral hemisphere of brain volumes were determined using the Cavalieri estimator with a 1 mm grid spacing 1 mm. Every fourth section was analyzed beginning from a random start point. Lesion volume was estimated by subtracting the volume of the ipsilateral hemisphere from that of the contralateral hemi-sphere. Then the volume of lesion cavity estimated in brain section of untreated mice was compared with lesion volume of brain sections of drug treated mice.

TBI mice [3] = assay: Barnes maze test in TBI mice; type: in vivo, mouse; conditions: 50 mg/kg/day oral; for Barnes maze latency (time taken to find the target hole) / Barnes maze number of errors: 21 days post-injury
Procedure: The Barnes maze test was performed as described in our earlier studies. Briefly, the mice were initially trained for 2 consecutive days followed by examination on day 3. After each training session, maze and escape tunnel were thoroughly cleaned with a mild detergent to avoid instinctive odor avoidance due to mouse's odor from the familiar object. On day 3, a video camera (Basler Gen I Cam—Basler acA 1300-60) connected to a Noldus computer system was placed above the maze and was illuminated with high voltage light that generated enough light and heat to motivate animals to enter into the escape tunnel. The performance was monitored by the video tracking system (Noldus System). Cognitive behavior parameters were examined by measuring latency (duration before all four paws were on the floor of the escape box) and errors (incorrect response before all four paws were on the floor of the escape box).

CCI-injured mice [4] = assay: Grid runway in CCI-injured mice; type: in vivo, mouse; conditions: for gait movement on grid runway (steps, time taken, foot misplacement): 7 day post-injury
From the text: The grid runway (65 cm length×8 cm breadth×1 cm intervals) made of parallel grid bars with interbar intervals of 1 cm apart and grid were kept above the surface on a table during the testing session. The soft padding was positioned under the grid run-way in the event for protection to avoid serious injury, if the animal falls from the grid. Each mouse was allowed to walk freely on grid and the time taken and number of steps to cross the runway was noted. Each successful foot placement on grid was recorded as a step. However, an error was considered whenever the paw slips through the grid or the paw misses a bar and extends downwards through the plane of bars. The locomotor behavior of animal on grid was evaluated by an observer blinded to the treatment on 7th and 21st day after CCI injury.

CCI-injured mice [5] = assay: Rotarod test in CCI-injured mice; type: in vivo, mouse; conditions: 50 mg/kg/day oral
Procedure: The forehindlimb motor coordination and balance in animals was observed using the rotarod test as described in earlier studies. Briefly, each mouse was placed on the confined section of the rod and trial was initiated with a smooth increase in speed from 4 rpm to 40 rpm for 5 mins. […] The latency to fall was measured in seconds and used for the analysis. Following the CCI injury, each mouse performed the task three trials during the testing sessions and the average score on these three trials was used as the individual rotarod score. Each trial on the rod was terminated when the mice fell off the rod or held on to the rod by hanging and completed improper revolutions.

CCI-injured mice [6] = assay: Tail suspension test (depression-like behavior) in CCI-injured mice; type: in vivo, mouse; conditions: 50 mg/kg/day oral
Procedure: Mice were subjected to the tail suspension test using a methodology as described in earlier studies. The mice were gently hung upside down by the tail using the non-toxic adhesive tape 50 cm above the floor for 6 mins. Immobility time was defined as the period of time during which the mice only hung passively, without any active movements. An increased immobility time is defined as a depression-like behavior.

CCI-injured mice [7] = assay: Beam runway / beam walking in CCI-injured mice; type: in vivo, mouse; conditions: for gait movement on beam runway (steps, time taken, foot slips): 7 day post-injury
From the text: The beam runway was made of smooth wooden material and measured 65 cm length×0.7 cm breadth×4 cm height. A black box with an opening was fixed at one end and an aversive stimulus (bright lamp) at the other end of beam. This test was used to evaluate the complex coordination and balance of mice while traversing the beam and we performed the procedure as described in earlier studies. The mouse was placed on the beam near the light source and the light was turned ‘on’. This makes the animal move into the box to avoid the aversive stimulus, which was then turned off. Six repetitions were performed with a 2 mins resting period inside the box. The parameters measured were the time taken (sec) to reach the box and the number of steps with contralateral limb drag/slips. An error was considered whenever the paw slipping on the beam and the number of slips were counted. The beam walk analysis was performed by an observer blinded to the treatment at 7th and 21st postoperative day.

[8] = test system: mice with TBI induced by CCI; assay: Open field behavior in TBI mice; type: in vivo, mouse; conditions: 50 mg/kg/day oral; for overall movements / all open-field parameters (heat map, distance, velocity, center frequency, rearing): 21 day post-injury
Procedure: The performance of animals in open field test was analyzed as described in earlier studies. Briefly, each animal was allowed to move freely to explore an open field arena designed with a square shaped wooden floor measuring 40×40 cm, with walls 30 cm high for 5 min. A […] (Basler Gen I Cam—Basler acA 1300-60) connected to a Noldus computer system was fixed in top facing-down on the open field arena. Each mouse was placed individually on center of the arena and the performance was monitored by the live video tracking system. The central area was arbitrarily defined as a square of 20×20 cm ([…]).

TBI mice [9] = assay: T-maze in TBI mice; type: in vivo, mouse; conditions: 21 days post-injury, 50 mg/kg/day oral
Procedure: Mice were initially habituated in the T-maze for 2 days under food-deprived conditions. Food reward was provided for at least 5 times over a 10 mins period of training. T-maze was cleaned with mild detergent solution between each testing session, so as to minimize the animal's ability to use any olfactory clues. The food-reward side was always associated with a visual cue. Each time the animal consumed food-reward and it was considered as a positive turn.

[10] = 21st day of CCI injury, 50 mg/kg/day oral gavage
[11] = 50 mg/kg/day oral, 50 mg/kg/day
[12] = 21 days post-injury, 50 mg/kg/day oral
[13] = 7 day post-injury, 50 mg/kg/day

Question: What does the source list for `O=C(OCC(COC(=O)c1ccccc1)OC(=O)c1ccccc1)c1ccccc1` [GTB, Glyceryl Tribenzoate]?
Answer: activation of astrocytes / astroglial inflammation in vivo (CCI-induced TBI mice [1]): inhibits; microglial activation in vivo (CCI-induced TBI mice [1]): decreases; iNOS / iNOS-positive cells (CCI-induced TBI mice [1]): decreased; GFAP-positive astrocytes (CCI-induced TBI mice [1]): decrease; Iba1-positive microglia (CCI-induced TBI mice [1]): reduced; level of iNOS protein / expression of iNOS (Western blot) (CCI-induced TBI mice [1]): decreased; protein level of GFAP (Western blot) (CCI-induced TBI mice [1]): decrease; protein level of Iba1 (Western blot) (CCI-induced TBI mice [1]): reduced; total lesion volume / size of lesion cavity (CCI-induced TBI mice [2]; H&E-stained sections, 50 mg/kg/day oral gavage): decrease; Barnes maze latency (time taken to find the target hole) (TBI mice [3]): less time; Barnes maze number of errors (TBI mice [3]): less errors; grid runway, number of steps (CCI-injured mice [4]; [10]): no significant change; gait movement on grid runway (steps, time taken, foot misplacement) (CCI-injured mice [4]; 50 mg/kg/day oral): improved; latency to fall on rotarod (CCI-injured mice [5]; 7 day post-injury): increase in latency; immobility time in tail suspension test (CCI-injured mice [6]; 7 days post-injury): significantly less immobility time; immobility time in tail suspension test (CCI-injured mice [6]; 21 days post-injury): significantly less immobility time; beam walking, number of steps (CCI-injured mice [7]; [10]): no significant change; beam walking, time taken (CCI-injured mice [7]; [10]): no significant change; gait movement on beam runway (steps, time taken, foot slips) (CCI-injured mice [7]; 50 mg/kg/day oral): improved; general locomotor activity / open-field behavior ([8]; 7 day post-injury): significant increase; overall movements / all open-field parameters (heat map, distance, velocity, center frequency, rearing) [8]: no significant change; T-maze number of negative turns (TBI mice [9]): lower number of negative turns; T-maze number of positive turns (TBI mice [9]): higher number of positive turns

Question: What does the source list for `O=C([O-])c1ccccc1.[Na+]` [NaB, Sodium benzoate]?
Answer: activation of astrocytes / astroglial inflammation in vivo (CCI-induced TBI mice [1]): attenuates; microglial activation in vivo (CCI-induced TBI mice [1]): inhibits; iNOS / iNOS-positive cells (CCI-induced TBI mice [1]): inhibition of iNOS; GFAP-positive astrocytes (CCI-induced TBI mice [1]): decrease; Iba1-positive microglia (CCI-induced TBI mice [1]): decrease; level of iNOS protein / expression of iNOS (Western blot) (CCI-induced TBI mice [1]): decreases; protein level of GFAP (Western blot) (CCI-induced TBI mice [1]): Decrease and/or normalization; protein level of Iba1 (Western blot) (CCI-induced TBI mice [1]): Decrease and/or normalization; total lesion volume / size of lesion cavity (CCI-induced TBI mice [2]; cresyl violet sections, 50 mg/kg/day oral): significantly reduced; structural-tissue integrity of damaged hippocampus (CCI-induced TBI mice [2]; oral treatment started 24 h after CCI): restored; Barnes maze latency (time taken to find the target hole) (TBI mice [3]): less latency; Barnes maze number of errors (TBI mice [3]): fewer errors; hippocampus-dependent behaviors / cognitive performance (TBI mice [3]; NOR, Barnes maze and T maze, 21 days): enhanced cognitive performance; gait movement on grid runway (steps, time taken, foot misplacement) (CCI-injured mice [4]; [11]): significant improvement; also recorded: significant upgrade; also recorded: improvements; grid runway performance (CCI-injured mice [4]; [12]): did not display significant protection; latency to fall on rotarod (CCI-injured mice [5]; [13]): prolonged latencies; also recorded: significantly improved; latency to fall on rotarod (CCI-injured mice [5]; 21 day post-injury, 50 mg/kg/day): prolonged latencies; also recorded: significantly improved; immobility time in tail suspension test (CCI-injured mice [6]; 7 days post-injury, 50 mg/kg/day): significantly less immobility time; also recorded: significant improvement; immobility time in tail suspension test (CCI-injured mice [6]; 21 days post-injury): significant improvement; gait movement on beam runway (steps, time taken, foot slips) (CCI-injured mice [7]; [11]): significant improvement; also recorded: significant upgrade; also recorded: improved; beam walking performance (CCI-injured mice [7]; [12]): did not display significant protection; general locomotor activity / open-field behavior [8, 13]: significant improvement; also recorded: improves; overall movements / all open-field parameters (heat map, distance, velocity, center frequency, rearing) [8]: significant differences in overall movements were not observed; center frequency ([8]; open field, 7 day post-injury): Functional upgrading was clearly visible; distance traveled ([8]; open field, 7 day post-injury): Functional upgrading was clearly visible; rearing behavior ([8]; open field, 7 day post-injury): Functional upgrading was clearly visible; velocity ([8]; open field, 7 day post-injury): Functional upgrading was clearly visible; T-maze number of negative turns (TBI mice [9]): lower number of negative turns; T-maze number of positive turns (TBI mice [9]): higher number of positive turns
